Test results taken from ChEMBL document CHEMBL5365393, “Comprehensive coverage on anti-mycobacterial endeavour reported during 2022” (Eur J Med Chem, 2023).
≈ marks a conversion by molar mass, not a printed value. Where “and” joins values, the source holds several entries; their conditions need not be identical. Identical values can stand only once.

Experiments:
[1] = system: Mycobacterium tuberculosis; assay: Antibacterial activity against Mycobacterium tuberculosis H37Rv assessed as inhibition of bacterial growth; format: functional, organism-based
RAW264.7 = assay: Cytotoxicity against mouse RAW264.7 cells assessed as cell growth inhibition by MTT assay relative to control; format: functional
[2] = system: Mycobacterium tuberculosis; assay: Antibacterial activity against Mycobacterium tuberculosis H37Rv assessed as inhibition of bacterial growth by microplate alamar blue assay; format: functional
[3] = system: Mycobacterium tuberculosis; assay: Antibacterial activity against Mycobacterium tuberculosis H37Rv assessed as bacterial growth inhibition at less than 6.25 ug/ml relative to control; format: functional; details: read-out: GI
[4] = Microsomal stability in human liver microsomes assessed as half life at 0.1 uM incubated for 60 mins in presence of NADPH by LC-MS/MS analysis; format: ADME, Microsome
[5] = system: Mycobacterium tuberculosis; assay: Antibacterial activity against drug-sensitive Mycobacterium tuberculosis assessed as inhibition of bacterial growth; format: functional
[6] = biological target: T1, Enoyl-[acyl-carrier-protein] reductase [NADH] (Mycobacterium tuberculosis, UniProt P9WGR1); assay: Inhibition of Mycobacterium tuberculosis InhA
T1 sequence (P9WGR1 whole entry): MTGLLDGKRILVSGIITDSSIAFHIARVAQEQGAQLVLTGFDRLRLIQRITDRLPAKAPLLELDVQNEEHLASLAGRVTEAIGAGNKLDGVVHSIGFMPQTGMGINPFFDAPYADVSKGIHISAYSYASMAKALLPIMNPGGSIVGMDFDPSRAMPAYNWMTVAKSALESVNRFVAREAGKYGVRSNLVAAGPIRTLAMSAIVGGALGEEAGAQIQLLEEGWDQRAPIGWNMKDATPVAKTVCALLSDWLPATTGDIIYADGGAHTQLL

[7] = system: Mycobacterium tuberculosis; assay: Antibacterial activity against wild-type Mycobacterium tuberculosis H37Rv assessed as inhibition of bacterial growth; format: functional
Thymidylate kinase = biological target: T2, Thymidylate kinase (Mycobacterium tuberculosis, UniProt P9WKE1); assay: Inhibition of Mycobacterium tuberculosis TMPK
T2 sequence (P9WKE1 whole entry): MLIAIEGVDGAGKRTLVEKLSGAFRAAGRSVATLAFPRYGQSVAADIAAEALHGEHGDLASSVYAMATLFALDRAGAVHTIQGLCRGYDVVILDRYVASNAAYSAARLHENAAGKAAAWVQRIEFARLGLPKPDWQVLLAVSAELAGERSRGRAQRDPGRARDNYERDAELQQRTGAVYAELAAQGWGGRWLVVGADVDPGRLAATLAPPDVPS

[8] = system: Mycobacterium tuberculosis; assay: Antibacterial activity against Mycobacterium tuberculosis H37Ra assessed as inhibition of bacterial growth; format: functional
Pantothenate synthetase = biological target: T3, Pantothenate synthetase (Mycobacterium tuberculosis, UniProt P9WIL5); assay: Inhibition of Mycobacterium tuberculosis H37Ra pantothenate synthetase
T3 sequence (P9WIL5 whole entry): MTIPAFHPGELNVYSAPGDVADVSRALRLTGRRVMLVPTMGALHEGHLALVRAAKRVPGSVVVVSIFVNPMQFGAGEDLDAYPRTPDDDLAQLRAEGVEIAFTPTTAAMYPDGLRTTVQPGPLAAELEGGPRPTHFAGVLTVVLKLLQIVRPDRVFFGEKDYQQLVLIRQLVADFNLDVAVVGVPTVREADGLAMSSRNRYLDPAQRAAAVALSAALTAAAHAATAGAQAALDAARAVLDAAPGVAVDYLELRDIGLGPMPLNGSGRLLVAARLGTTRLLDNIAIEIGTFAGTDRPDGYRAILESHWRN

[9] = system: Mycobacterium tuberculosis; assay: Antibacterial activity against Mycobacterium tuberculosis H37Rv assessed as inhibition of bacterial growth by resazurin dye based colorimetric analysis; format: functional, organism-based
[10] = system: Mycobacterium tuberculosis; assay: Antibacterial activity against Mycobacterium tuberculosis assessed as inhibition of bacterial growth; format: functional, organism-based

Cc1cc(C(=O)N2CCN(c3nc(=O)c4cc(Br)cc([N+](=O)[O-])c4s3)CC2)c2cc(Cl)ccc2n1
MIC [1]: 0.12 µg/mL

CN1CCN(C(=O)c2cc3ccccc3[nH]2)CC1
growth inhibition (GI) (RAW264.7): 32%
MIC [2]: 3.12 µg/mL

Cc1cc(C(=O)N2CCN(c3nc(=O)c4cc(C(F)(F)F)cc([N+](=O)[O-])c4s3)CC2)c2cc(Cl)ccc2n1
MIC [1]: 0.12 µg/mL

Cc1cc(C(=O)N2CCN(c3nc(=O)c4cc(F)cc([N+](=O)[O-])c4s3)CC2)c2cc(Br)ccc2n1
MIC [1]: 0.06 µg/mL

C[C@H]1S[C@]2(CC[C@@H](c3ccccc3)CC2)N(NC(=O)[C@@H](O)c2ccccc2)C1=O
MIC [1]: < 6.25 µg/mL
inhibition of growth at 6.25 µg/mL [3]: 98%

Cc1ccc(C(=O)C2[C@H]3CCCN3[C@]3(C(=O)Nc4ccccc43)C23c2ccccc2-n2c3nc3ccccc3c2=O)cc1 (stereo partly drawn)
MIC [1]: 1.56 µg/mL

CC(=O)NC[C@H]1CN(c2ccc(N3CCOCC3)c(F)c2)C(=O)O1 [LINEZOLID]
MIC [1]: 1 µg/mL

CC(=O)c1c(C)n(-c2ccc(C3CCNCC3)cc2)c2ccc(O)c(CN3CCCCC3)c12
MIC [2]: 0.125 µg/mL
half-life at 0.1 µM [4]: 58 min

O=c1/c(=C\c2ccc(Cl)cc2)sc2n1CN(C1=NS(=O)(=O)c3ccccc31)CN=2
MIC [5]: 2.28 µg/mL (≈ 5.12 µM)

COc1ccc(-c2nn(-c3ccc([N+](=O)[O-])cc3[N+](=O)[O-])c(N)c2C#N)cc1Oc1cccc(Br)c1C#N
IC50 [6]: 290 nM
MIC [5]: 0.98 µg/mL (≈ 1.7 µM)

Cc1nc2cc(C(F)(F)F)ccc2n1-c1ncc(C(F)(F)F)s1
MIC [1]: 0.28 µM

CC(=O)c1ccc(N2CN=c3s/c(=C/c4ccco4)c(=O)n3C2)cc1
MIC [5]: 2.49 µg/mL (≈ 7.05 µM)

CC(C)/N=c1\cc2n(-c3ccccc3)c3ccccc3nc-2cc1Nc1ccc(N2CCN(C)CC2)c(F)c1
MIC [1]: 0.625 µg/mL
MIC [7]: 0.08 µg/mL (≈ 0.154 µM)

CC(=O)c1c(C)n(-c2ccc(-c3ccccc3)cc2)c2ccc(O)c(CN3CCCCC3)c12
MIC [2]: 0.063 µg/mL
half-life at 0.1 µM [4]: 20.7 min

Cc1cn([C@H]2C[C@H](O)[C@@H](COP(=O)(O)O)O2)c(=O)[nH]c1=O [THYMIDINE MONOPHOSPHATE]
IC50 (Thymidylate kinase): 70 nM

CC[C@@H](CO)NCCN[C@@H](CC)CO [ETHAMBUTOL]
MIC [2]: 7.64 µM and 1.6 µg/mL

CCOC(=O)C1=C(C)NC(=O)NC1c1ccccc1OCc1cn(CC(=O)c2ccc(Cl)cc2)nn1 (stereo not drawn)
MIC [2]: 6.13 µM

C/C(=N\N=C(\N/N=C(\C)c1ccc(Cl)cc1)NC(=S)Nc1cccc2ccccc12)c1ccc(Cl)cc1
MIC [1]: 0.78 µM

CCOC(=O)Cc1csc(N2C(=O)CSC2c2ccc(OC)cc2)n1 (stereo not drawn)
IC50 [6]: 1300 nM
MIC [5]: 0.12 µg/mL (≈ 0.317 µM)

CS(=O)(=O)N1CCN(c2ccc(N3C[C@H](CNC(=O)c4ccc([N+](=O)[O-])o4)OC3=O)cc2F)CC1
MIC [1]: 1.1 µg/mL

Cc1nc2sc3ccccc3n2c1C(=O)N1CCN(Cc2cn(-c3ccc(Cl)cc3Cl)nn2)CC1
IC90 [8]: 15200 nM
IC50 (Pantothenate synthetase): 2030 nM
IC50 [9]: 1.6 µg/mL (≈ 3.04 µM)

Cc1cc(C(=O)N2CCN(c3nc(=O)c4cc(Br)cc([N+](=O)[O-])c4s3)CC2)c2cc(Br)ccc2n1
MIC [1]: 0.12 µg/mL

CO[C@H]1/C=C/O[C@@]2(C)Oc3c(C)c(O)c4c(O)c(c(/C=N/N5CCN(C)CC5)c(O)c4c3C2=O)NC(=O)/C(C)=C\C=C\[C@H](C)[C@H](O)[C@@H](C)[C@@H](O)[C@@H](C)[C@H](OC(C)=O)[C@@H]1C [RIFAMPIN]
MIC [1]: 0.97 µg/mL

Cc1cc(N=Nc2ccc(O)cc2O)ccc1C(C)C
IC50 [10]: 620 nM
